Data on five compounds can be found in ChEMBL document CHEMBL1148858, “Discovery of novel benzimidazolones as potent non-nucleoside reverse transcriptase inhibitors active against wild-type and mutant HIV-1 strains” (Bioorg Med Chem Lett, 2007).

Some results are limits rather than exact numbers.

The subject of series [1] is Human immunodeficiency virus 1. The series is described as follows: Antiviral activity against HIV1 with reverse transcriptase L100I mutation in CEM cells assessed as inhibition of virus-induced giant cell formation. It counts as functional, organism-based. As to conditions: Human immunodeficiency virus 1, CCRF-CEM.
Series [2] concerns Human immunodeficiency virus 1. The series is described as follows: Antiviral activity against HIV1 with reverse transcriptase Y181C mutation in CEM cells assessed as inhibition of virus-induced giant cell formation. It counts as functional, organism-based. The conditions noted are these: Human immunodeficiency virus 1, CCRF-CEM.
The target of series [3] is Human immunodeficiency virus type 1 reverse transcriptase (Human immunodeficiency virus 1, UniProt Q72547). The series can be described thus: Inhibition of RNA dependent DNA polymerase activity of HIV1 recombinant reverse transcriptase.
Series [4] relates to Human immunodeficiency virus 1. The series is described as follows: Antiviral activity against HIV1 assessed as reduction of virus-induced cytopathic effect in MT4 cells. The conditions noted are these: Human immunodeficiency virus 1, MT4. It counts as functional, organism-based.
Series [5] deals with Human immunodeficiency virus 1. The series is described as follows: Antiviral activity against HIV1 3B in CEM cells assessed as inhibition of virus-induced giant cell formation. It counts as functional, organism-based. The conditions noted are these: Human immunodeficiency virus 1, 3B, CCRF-CEM.
Series [6] concerns Human immunodeficiency virus 1. The series can be described thus: Antiviral activity against HIV1 with reverse transcriptase Y188H mutation in CEM cells assessed as inhibition of virus-induced giant cell formation. As to conditions: Human immunodeficiency virus 1, CCRF-CEM. It counts as functional, organism-based.
The subject of series [7] is Human immunodeficiency virus 1. The series is described as follows: Antiviral activity against HIV1 with reverse transcriptase K103N mutation in CEM cells assessed as inhibition of virus-induced giant cell formation. It counts as functional, organism-based. As to conditions: Human immunodeficiency virus 1, CCRF-CEM.
Series [8] has as its system Human immunodeficiency virus 1. The series is described as follows: Antiviral activity against HIV1 with reverse transcriptase E138K mutation in CEM cells assessed as inhibition of virus-induced giant cell formation. It counts as functional, organism-based. As to conditions: Human immunodeficiency virus 1, CCRF-CEM.
Series [9] in a line: Selectivity index, ratio of CC50 for human MT4 cells to EC50 for HIV1. It counts as functional.
Series [10] is described as follows: Cytotoxicity against MT4 cells assessed as reduction of cell viability. It counts as cell-based. The conditions noted are these: human.

Broadly, the EC50 is the concentration giving half of the maximal effect. The IC50 is the concentration that inhibits the measured activity by half. In general, CC50 refers to the concentration at which the toxic effect on the cells reaches its halfway point. `Cc1cc(C)cc(Cn2c(=O)[nH]c3ccc(Cl)cc32)c1`: the EC50 in series [1] is 49 nM; in [2], greater than 3000 nM; in series [4], 32 nM; in series [5] it was 81 nM; in series [6], greater than 3000 nM; in [7] it was no less than 3000 nM. The EC50 in [8] stood at 665 nM. Besides, in [3], the IC50 was found to be 150 nM. Moreover, the “Ratio CC50/EC50” value in [9] was 281. The CC50 in series [10] was found to be 8900 nM.

Regarding `Cc1cc(C)cc(S(=O)(=O)n2c(=O)[nH]c3ccc(Cl)cc32)c1`, the EC50 was 6 nM in [1]; 160 nM in [2]; 2 nM in series [4]; 3 nM in series [5]; 1500 nM in series [6]; 29 nM in series [7]. Further, the EC50 in [8] amounted to 15 nM. Also, the IC50 in [3] was determined as 5 nM. Also, in series [9], the “Ratio CC50/EC50” value came out at 17846. Moreover, the CC50 in series [10] was determined as 39000 nM.

Take `O=c1[nH]c2ccc(Cl)cc2n1Cc1c(F)cccc1F`: the EC50 is 3100 nM in [1]; greater than 50000 nM in series [2]; 240 nM in series [4]; 374 nM in series [5]; greater than 50000 nM in series [6]; greater than 50000 nM in series [7]. Further, the EC50 in series [8] was 2500 nM. Besides, the IC50 in series [3] amounted to 700 nM. Besides, the “Ratio CC50/EC50” value in series [9] was greater than 1766. Besides, the CC50 in series [10] was greater than 424000 nM.

In the case of `O=C1Nc2ccc(Cl)cc2[C@@](C#CC2CC2)(C(F)(F)F)O1` [EFAVIRENZ], the EC50 was found to be 6.1 nM in series [2], 49 nM in series [6], 218 nM in [7] and 9.6 nM in [8]. In series [10], the half-maximal cytotoxic concentration (CC50) was greater than 6000 nM.

Turning to `Cc1ccnc2c1NC(=O)c1cccnc1N2C1CC1` [NEVIRAPINE], the EC50 in series [1] was 199 nM; in [2] it was 2500 nM; in [4] it was 73 nM; in series [5] it was 30 nM; in series [6], greater than 75000 nM; in series [7], 1300 nM. For the same compound, in series [8], the EC50 turned out to be 207 nM. The CC50 in series [10] was greater than 15000 nM.
